Test results from ChEMBL document CHEMBL3885861, “Open TG-GATES”.

Organism: Rattus norvegicus
Assay: Open TG-GATES - Regimen: Single
Format: toxicity, organism-based, Sprague-Dawley
Set-up: regimen Single, gender Male, age 6 weeks
Conditions: in vivo, po, 0 mg/kg, route gavage, dose level Control; for APTT / Bas / Eos / Fbg / Hb / Ht / Lym / MCH / MCHC / MCV / Mono / Neu / PT / Plat / RBC / Ret / WBC: tissue Blood; for KIDNEY_L / KIDNEY_R / KIDNEY_TOTAL: tissue Kidney; for LIVER: tissue Liver; for A/G / ALP / ALT / AST / BUN / CRE / Ca / Cl / DBIL / GLC / IP / K / LDH / Na / PL / RALB / TBIL / TC / TG / TP / gamma-GTP: tissue Plasma

Structure (SMILES): CCOC(=O)C(C)(C)Oc1ccc(Cl)cc1 [CLOFIBRATE]
- TERMINAL_BW (3 h): 228.9 g
- APTT (3 h): 18.8 s
- Bas (3 h): 0%
- Eos (3 h): 0.8%
- Fbg (3 h): 234.6 mg/dL
- Hb (3 h): 13.3 g/dL
- Ht (3 h): 38.4%
- Lym (3 h): 81.8%
- MCH (3 h): 21.5 pg
- MCHC (3 h): 34.9%
- MCV (3 h): 61.6 fL
- Mono (3 h): 2.4%
- Neu (3 h): 14.4%
- PT (3 h): 12.2 s
- Plat (3 h): 137.2 x10_4/uL
- RBC (3 h): 623.6 x10_4/ul
- Ret (3 h): 7.6%
- WBC (3 h): 86.9 x10_2/uL
- KIDNEY_L (3 h): 0.9 g
- KIDNEY_R (3 h): 0.9 g
- KIDNEY_TOTAL (3 h): 1.8 g
- LIVER (3 h): 10.8 g
- A/G (3 h): 1.6
- ALP (3 h): 1250.4 IU/L
- ALT (3 h): 37.6 IU/L
- AST (3 h): 75.6 IU/L
- BUN (3 h): 11.6 mg/dL
- CRE (3 h): 0.4 mg/dL
- Ca (3 h): 11 mg/dL
- Cl (3 h): 101.8 meq/L
- DBIL (3 h): 0.4 mg/dL
- GLC (3 h): 193.4 mg/dL
- IP (3 h): 8.4 mg/dL
- K (3 h): 3.8 meq/L
- LDH (3 h): 218.8 IU/L
- Na (3 h): 139 meq/L
- PL (3 h): 184 mg/dL
- RALB (3 h): 3.6 g/dL
- TBIL (3 h): 0.4 mg/dL
- TC (3 h): 79.8 mg/dL
- TG (3 h): 233.2 mg/dL
- TP (3 h): 5.8 g/dL
- gamma-GTP (3 h): 1 IU/L
- TERMINAL_BW (6 h): 225.4 g
- APTT (6 h): 18.9 s
- Bas (6 h): 0%
- Eos (6 h): 1%
- Fbg (6 h): 229.6 mg/dL
- Hb (6 h): 13.7 g/dL
- Ht (6 h): 39.7%
- Lym (6 h): 76.8%
- MCH (6 h): 20.9 pg
- MCHC (6 h): 34.5%
- MCV (6 h): 60.7 fL
- Mono (6 h): 3.4%
- Neu (6 h): 18.4%
- PT (6 h): 12.5 s
- Plat (6 h): 131.5 x10_4/uL
- RBC (6 h): 654.6 x10_4/ul
- Ret (6 h): 7.7%
- WBC (6 h): 91.8 x10_2/uL
- KIDNEY_L (6 h): 1 g
- KIDNEY_R (6 h): 1 g
- KIDNEY_TOTAL (6 h): 2 g
- LIVER (6 h): 10 g
- A/G (6 h): 1.7
- ALP (6 h): 1002.8 IU/L
- ALT (6 h): 31.2 IU/L
- AST (6 h): 67.2 IU/L
- BUN (6 h): 8.6 mg/dL
- CRE (6 h): 0.3 mg/dL
- Ca (6 h): 10.7 mg/dL
- Cl (6 h): 103.2 meq/L
- DBIL (6 h): 0.1 mg/dL
- GLC (6 h): 192.2 mg/dL
- IP (6 h): 8.8 mg/dL
- K (6 h): 3.9 meq/L
- LDH (6 h): 224 IU/L
- Na (6 h): 140.4 meq/L
- PL (6 h): 157.6 mg/dL
- RALB (6 h): 3.5 g/dL
- TBIL (6 h): 0.2 mg/dL
- TC (6 h): 76.2 mg/dL
- TG (6 h): 86 mg/dL
- TP (6 h): 5.7 g/dL
- gamma-GTP (6 h): 1 IU/L
- TERMINAL_BW (9 h): 221.7 g
- APTT (9 h): 18.1 s
- Bas (9 h): 0%
- Eos (9 h): 1%
- Fbg (9 h): 234.4 mg/dL
- Hb (9 h): 13.4 g/dL
- Ht (9 h): 38.5%
- Lym (9 h): 73.2%
- MCH (9 h): 20.8 pg
- MCHC (9 h): 34.9%
- MCV (9 h): 59.7 fL
- Mono (9 h): 2.6%
- Neu (9 h): 22.8%
- PT (9 h): 13 s
- Plat (9 h): 137.3 x10_4/uL
- RBC (9 h): 644.4 x10_4/ul
- Ret (9 h): 7.1%
- WBC (9 h): 78.9 x10_2/uL
- KIDNEY_L (9 h): 0.9 g
- KIDNEY_R (9 h): 1 g
- KIDNEY_TOTAL (9 h): 1.9 g
- LIVER (9 h): 9 g
- A/G (9 h): 1.6
- ALP (9 h): 1006.6 IU/L
- ALT (9 h): 27 IU/L
- AST (9 h): 63.6 IU/L
- BUN (9 h): 11.2 mg/dL
- CRE (9 h): 0.4 mg/dL
- Ca (9 h): 10.2 mg/dL
- Cl (9 h): 103 meq/L
- DBIL (9 h): 0.082 mg/dL
- GLC (9 h): 204.6 mg/dL
- IP (9 h): 10.2 mg/dL
- K (9 h): 3.7 meq/L
- LDH (9 h): 223.8 IU/L
- Na (9 h): 141.2 meq/L
- PL (9 h): 136.8 mg/dL
- RALB (9 h): 3.3 g/dL
- TBIL (9 h): 0.1 mg/dL
- TC (9 h): 64.2 mg/dL
- TG (9 h): 68.2 mg/dL
- TP (9 h): 5.5 g/dL
- gamma-GTP (9 h): 0.8 IU/L
- TERMINAL_BW (24 h): 236.7 g
- APTT (24 h): 18.6 s
- Bas (24 h): 0%
- Eos (24 h): 1%
- Fbg (24 h): 230.2 mg/dL
- Hb (24 h): 13.7 g/dL
- Ht (24 h): 39.5%
- Lym (24 h): 80.8%
- MCH (24 h): 20.7 pg
- MCHC (24 h): 34.5%
- MCV (24 h): 60 fL
- Mono (24 h): 2.4%
- Neu (24 h): 15.8%
- PT (24 h): 12.5 s
- Plat (24 h): 127.3 x10_4/uL
- RBC (24 h): 659.8 x10_4/ul
- Ret (24 h): 6.3%
- WBC (24 h): 75.3 x10_2/uL
- KIDNEY_L (24 h): 1 g
- KIDNEY_R (24 h): 1 g
- KIDNEY_TOTAL (24 h): 2 g
- LIVER (24 h): 10.9 g
- A/G (24 h): 1.5
- ALP (24 h): 1006.2 IU/L
- ALT (24 h): 34 IU/L
- AST (24 h): 66.4 IU/L
- BUN (24 h): 14.4 mg/dL
- CRE (24 h): 0.4 mg/dL
- Ca (24 h): 10.7 mg/dL
- Cl (24 h): 102.2 meq/L
- DBIL (24 h): 0.094 mg/dL
- GLC (24 h): 191.2 mg/dL
- IP (24 h): 7 mg/dL
- K (24 h): 3.9 meq/L
- LDH (24 h): 198.2 IU/L
- Na (24 h): 140 meq/L
- PL (24 h): 147.8 mg/dL
- RALB (24 h): 3.3 g/dL
- TBIL (24 h): 0.2 mg/dL
- TC (24 h): 68.4 mg/dL
- TG (24 h): 125.4 mg/dL
- TP (24 h): 5.5 g/dL
- gamma-GTP (24 h): 1 IU/L
